Legend:
Assay type in all cases: functional
[1] = test system: Rattus norvegicus; test: Antiinflammatory activity in Wister albino rat assessed as inhibition carrageenan-induced paw edema at 2 mg/kg, po administered 30 mins before carrageenan challenge measured after 3 hrs relative to control
[2] = test system: Rattus norvegicus; test: Antiinflammatory activity in Wister albino rat assessed as inhibition of carrageenan-induced paw edema at 50 mg/kg, po administered 30 mins before carrageenan challenge measured after 3 hrs relative to control
[3] = test system: Mus musculus; test: Analgesic activity in albino mouse assessed as response latency time to pain stimulus at 25 mg/kg, po after 1 hr by hot plate method; parameters: unit not given here
[4] = test system: Mus musculus; test: Analgesic activity in albino mouse assessed as response latency time to pain stimulus at 25 mg/kg, po after 3 hrs by hot plate method; parameters: unit not given here
[5] = test system: Staphylococcus aureus; test: Antibacterial activity against Staphylococcus aureus after 24 hrs by disk diffusion method
[6] = test system: Staphylococcus aureus; test: Antibacterial activity against Staphylococcus aureus after 24 hrs by broth dilution technique
[7] = test system: Escherichia coli; test: Antibacterial activity against Escherichia coli after 24 hrs by disk diffusion method
[8] = test system: Escherichia coli; test: Antibacterial activity against Escherichia coli after 24 hrs by broth dilution technique
[9] = test system: Pseudomonas aeruginosa; test: Antibacterial activity against Pseudomonas aeruginosa after 24 hrs by disk diffusion method
[10] = test system: Pseudomonas aeruginosa; test: Antibacterial activity against Pseudomonas aeruginosa after 24 hrs by broth dilution technique
[11] = test system: Klebsiella pneumoniae; test: Antibacterial activity against Klebsiella pneumoniae after 24 hrs by disk diffusion method
[12] = test system: Klebsiella pneumoniae; test: Antibacterial activity against Klebsiella pneumoniae after 24 hrs by broth dilution technique
[13] = test system: Streptococcus pyogenes; test: Antibacterial activity against Streptococcus pyogenes after 24 hrs by disk diffusion method
[14] = test system: Streptococcus pyogenes; test: Antibacterial activity against Streptococcus pyogenes after 24 hrs by broth dilution technique
[15] = test system: Candida albicans; test: Antifungal activity against Candida albicans after 3 to 4 days by agar diffusion method
[16] = test system: Candida albicans; test: Antifungal activity against Candida albicans after 48 hrs by twofold broth dilution method
[17] = test system: Aspergillus niger; test: Antifungal activity against Aspergillus niger after 3 to 4 days by agar diffusion method
[18] = test system: Aspergillus niger; test: Antifungal activity against Aspergillus niger after 48 hrs by twofold broth dilution method
[19] = test system: Aspergillus fumigatus; test: Antifungal activity against Aspergillus fumigatus after 3 to 4 days by agar diffusion method
[20] = test system: Aspergillus fumigatus; test: Antifungal activity against Aspergillus fumigatus after 48 hrs by twofold broth dilution method
[21] = test system: Trichophyton mentagrophytes; test: Antifungal activity against Trichophyton mentagrophytes after 48 hrs by twofold broth dilution method
[22] = test system: Talaromyces marneffei; test: Antifungal activity against Penicillium marneffei after 3 to 4 days by agar diffusion method
[23] = test system: Talaromyces marneffei; test: Antifungal activity against Penicillium marneffei after 48 hrs by twofold broth dilution method
[24] = test system: Trichophyton mentagrophytes; test: Antifungal activity against Trichophyton mentagrophytes after 3 to 4 days by agar diffusion method

SMILES	inhibition in vivo at 50 mg/kg [2] [%]	Time [3]	Time [4]	Diameter of inhibition zone [5] [mm]	MIC [6] [microg/cm3]	Diameter of inhibition zone [7] [mm]	MIC [8] [microg/cm3]	Diameter of inhibition zone [9] [mm]	MIC [10] [microg/cm3]	Diameter of inhibition zone [11] [mm]	MIC [12] [microg/cm3]	Diameter of inhibition zone [13] [mm]	MIC [14] [microg/cm3]	Diameter of inhibition zone [15] [mm]	MIC [16] [microg/cm3]	MIC [18] [microg/cm3]	Diameter of inhibition zone [19] [mm]	MIC [20] [microg/cm3]	MIC [21] [microg/cm3]	MIC [23] [microg/cm3]	further results
COc1ccc2c(c1)c(CC(=O)O)c(C)n2C(=O)c1ccc(Cl)cc1 [INDOMETHACIN]	–	–	–	–	–	–	–	–	–	–	–	–	–	–	–	–	–	–	–	–	inhibition in vivo at 2 mg/kg [1]: 62.9%
Fc1cc(-c2nc3scc(-c4ccc(Br)cc4)n3n2)c(Cl)cc1Cl	25	14.8	13.9	21	6.25	24	6.25	29	6.25	19	6.25	25	6.25	14	12.5	25	12	12.5	>100	25	Diameter of inhibition zone [17]: 9 mm; Diameter of inhibition zone [22]: 10 mm
Fc1cc(-c2nc3scc(-c4cc(F)c(Cl)cc4Cl)n3n2)c(Cl)cc1Cl	59.4	14.21	13.6	23	6.25	28	6.25	30	6.25	19	6.25	24	6.25	18	6.25	12.5	20	6.25	6.25	6.25	Diameter of inhibition zone [17]: 22 mm; Diameter of inhibition zone [24]: 18 mm; Diameter of inhibition zone [22]: 23 mm
Fc1cc(-c2nc3scc(-c4ccc(Cl)cc4)n3n2)c(Cl)cc1Cl	42.2	13.2	12.9	26	6.25	26	6.25	31	6.25	17	6.25	19	6.25	20	6.25	6.25	19	6.25	6.25	6.25	Diameter of inhibition zone [17]: 24 mm; Diameter of inhibition zone [24]: 19 mm; Diameter of inhibition zone [22]: 19 mm
Cc1ccc(-c2csc3nc(-c4cc(F)c(Cl)cc4Cl)nn23)cc1	0	8.2	8.4	15	6.25	13	12.5	14	6.25	15	6.25	14	12.5	–	>100	12.5	16	6.25	25	>100	Diameter of inhibition zone [17]: 11 mm; Diameter of inhibition zone [24]: 8 mm
O=[N+]([O-])c1ccc(-c2csc3nc(-c4cc(F)c(Cl)cc4Cl)nn23)cc1	10.9	11.2	10.9	12	12.5	15	6.25	15	6.25	11	12.5	12	12.5	16	6.25	>100	17	6.25	25	6.25	Diameter of inhibition zone [24]: 10 mm; Diameter of inhibition zone [22]: 18 mm
